From patent US9526737B2, “Oxysterols for activation of hedgehog signaling, osteoinduction, antiadipogenesis, and Wnt signaling” (THE REGENTS OF THE UNIVERSITY OF CALIFORNIA, priority 2007, dated 2016) come the findings set out here.

Each structure is given as a SMILES string. Where two headings read alike, the source gives them in different places.

The test system of one assay is marrow stromal cells. The assay can be described thus: Osteoinductive properties (osteoblast differentiation markers: ALP activity, osteocalcin mRNA, mineralization). In kind it is cell-based. The following applies: induction of osteoblast differentiation markers. An excerpt:
Oxysterols discussed in this application include those designated as Oxy22, Oxy26, Oxy27, Oxy28, Oxy39, Oxy40, Oxy41, Oxy42, Oxy48, Oxy49, Oxy20, Oxy34, Oxy36, Oxy38, Oxy50, Oxy51, Oxy52, and Oxy53. At least the following oxysterols have been identified as osteoinductive: Oxy22, Oxy26, Oxy27, Oxy28, Oxy39, Oxy40, Oxy41, Oxy42, Oxy48, Oxy49, Oxy50, Oxy51, Oxy52, and Oxy53. The osteoinductive properties of these oxysterols is shown by their ability to induce the expression of various osteoblast differentiation markers, including alkaline phosphatase activity, osteocalcin mRNA expression, and mineralization. These oxysterols are activators of the hedgehog signaling pathway.

Assay [1] has as its system M2-10B4 marrow stromal cells. The assay can be described thus: Alkaline phosphatase (ALP) activity assay. The following applies: for fold induction at 2.5 µM / fold induction at 5 µM / fold induction at 1.25 µM: M210B4, 72 h; for Alkaline phosphatase activity versus control vehicle (significance): 1.25 μM, 3 days, p>0.05.
Description: The protocol is a modification of alkaline phosphatase assay kit from Sigma. Cells are cultured in 24-well tissue culture plates. After treatments with test agents, cells are rinsed twice with PBS and scraped into 200 ml of lysis buffer (0.2% NP-40 in 1 mM MgCl2) and sonicated for 10 seconds. Next, 1 ml of reaction mixture is added to each well. Reaction mixture is 221 alkaline buffer (Sigma): stock substrate solution (1:1). Stock substrate solution is prepared by dissolving 40 mg of Sigma 104 phosphatase substrate in 10 ml of ddH2O. After addition of reaction mixture to lysed cells, incubation is performed for 30 minutes at 37 C. […] The reaction is stopped by the addition of 12 ml of 1N NaOH to each well, and absorbance is determined at 405 nm. Alkaline phosphatase activity is calculated using p-nitrophenol as a standard, according to Sigma kit's instructions. Results are normalized to total protein in each well determined using the Bio-Rad protein assay solution (Bio-Rad Laboratories).
M2-10B4 marrow stromal cells were treated with oxysterols at various doses for 3 days after which they were collected and analyzed by calorimetric assay for alkaline phosphatase activity (a marker of osteoblastic differentiation) (Table 1); the alkaline phosphatase assay described above was used.
M2-10B4 marrow stromal cells were treated with oxysterols at various doses for 3 days after which they were collected and analyzed by colorimetric assay for alkaline phosphatase activity (a marker of osteoblastic differentiation) (Table 2); the alkaline phosphatase assay described above was used.
M2-10B4 bone marrow stromal cells were treated in culture with control vehicle (C) or various oxysterol (Oxy) molecules as indicated at either 1.25 (1) or 2.5 (2) μM concentrations. After 3 days of treatment, alkaline phosphatase activity as a measure of early osteogenic differentiation of cells was measured in whole cell lysates (See FIG. 9 and Table 3); the alkaline phosphatase assay described above was used.
The mark [2] stands for this setting: read-out: Fold Induction in alkaline phosphatase activity compared to control untreated cells.
Where [3] appears, read: read-out: Fold Induction in alkaline phosphatase activity over control untreated cells.

Regarding `CC(CO)CCC[C@](C)(O)[C@H]1CC[C@H]2[C@@H]3CC=C4C[C@@H](O)CC[C@]4(C)[C@H]3CC[C@@]21C` (stereo partly shown) [Oxy40], the Osteoinductive property result with marrow stromal cells is on record as “osteoinductive”. Moreover, in assay [1] (setting [2]), the fold induction at 2.5 µM is 28 and the fold induction at 5 µM was 105.
As to `CC(CO)CCC[C@](C)(O)[C@H]1CC[C@H]2[C@@H]3C[C@H](O)[C@H]4C[C@@H](O)CC[C@]4(C)[C@H]3CC[C@@]21C` (stereo partly drawn) [Oxy48, (3S,5S,6S,8R,9S,10R,13S,14S,17S)-17-((2S)-2,7-Dihydroxy-6-methylheptan-2-yl)-10,13-dimethylliexadecahydro-1H-cyclopenta[a]phenanthrene-3,6-diol], in the assay on marrow stromal cells, the Osteoinductive property entry is listed as “osteoinductive”. For the same molecule, in assay [1] (setting [2]), the fold induction at 2.5 µM turned out to be 11 and the fold induction at 5 µM was determined as 43.
The corresponding values for `CC(=O)O[C@H]1CC2C3CCC([C@@](C)(O)CCCC(C)C)[C@@]3(C)CCC2[C@@]2(C)CC[C@H](O)C[C@H]12` (stereo partly shown) [Oxy28] are “osteoinductive”, 59 and 75.
Take `C[C@]12CC[C@H]3[C@@H](CC=C4C[C@@H](O)CC[C@@]43C)[C@@H]1CC[C@@H]2[C@@](C)(O)CCc1ccccc1` [Oxy27, (3S,8S,9S,10R,13S,14S,17S)-17-((S)-2-Hydroxy-4-phenylbutan-2-yl)-10,13-dimethyl-2,3,4,7,8,9,10,11,12,13,14,15,16,17-tetradecahydro-1H-cyclopenta[a]phenanthren-3-ol]: in the assay with marrow stromal cells, the Osteoinductive property entry was “osteoinductive”. For the same molecule, in assay [1] (setting [2]), the fold induction at 2.5 µM stood at 17 and the fold induction at 5 µM was found to be 42.
Take `CC(C)C/C=C/[C@](C)(O)C1CC[C@H]2[C@@H]3CC=C4C[C@@H](O)CC[C@]4(C)[C@H]3CC[C@]12C` (stereo partly drawn) [Oxy20, (3S,8S,9S,10R,13S,14S)-17-((S,E)-2-hydroxy-6-methylhept-3-en-2-yl)-10,13-dimethyl-2,3,4,7,8,9,10,11,12,13,14,15,16,17-tetradecahydro-1H-cyclopenta[a]phenanthren-3-ol]: in assay [1] (setting [2]), the fold induction at 2.5 µM was determined as 36 and the fold induction at 5 µM worked out at 68.
For `C[C@]12CC[C@H](O)C[C@@H]1[C@@H](O)C[C@@H]1[C@@H]2CC[C@@]2(C)[C@H]1CC[C@@H]2[C@@](C)(O)CCCc1cccs1` [Oxy50, (3S,5S,6S,8R,9S,10R,13S,14S,17S)-17-((S)-2-hydroxy-5-(thiophen-2-yl)pentan-2-yl)-10,13-dimethylhexadecahydro-1H-cyclopenta[a]phenanthrene-3,6-diol], in the assay on marrow stromal cells, the Osteoinductive property result was “osteoinductive”. Further, in assay [1] (setting [3]), the fold induction at 1.25 µM was 25 and the fold induction at 2.5 µM is 65.
As for `C[C@]12CC[C@H](O)C[C@@H]1[C@@H](O)C[C@@H]1[C@@H]2CC[C@@]2(C)[C@H]1CC[C@@H]2[C@@](C)(O)CCCc1ccccc1` [Oxy53, (3S,5S,6S,8R,9S,10R,13S,14S,17S)-17-((S)-2-hydroxy-5-phenylpentan-2-yl)-10,13-dimethylhexadecahydro-1H-cyclopenta[a]phenanthrene-3,6-diol], the Osteoinductive property entry in the assay with marrow stromal cells is listed as “osteoinductive”. For the same molecule, in assay [1], the “Alkaline phosphatase activity versus control vehicle (significance)” value is “not significant”. Moreover, in assay [1] (setting [3]), the fold induction at 1.25 µM came out at 2 and the fold induction at 2.5 µM was determined as 11.
Turning to `C=C(C)CCC[C@](C)(O)[C@H]1CC[C@H]2[C@@H]3C[C@H](OC(C)=O)[C@H]4C[C@@H](O)CC[C@]4(C)[C@H]3CC[C@@]21C` [Oxy41, (3S,5S,6S,8R,9S,10R,13S,14S,17S)-3-Hydroxy-17-((S)-2-hydroxy-6-methylhept-6-en-2-yl)-10,13-dimethylhexadecahydro-1H-cyclopenta[a]phenanthren-6-yl acetate], in the assay with marrow stromal cells, the Osteoinductive property entry is reported as “osteoinductive”. In addition, in assay [1] (setting [2]), the fold induction at 2.5 µM amounted to 46 and the fold induction at 5 µM turned out to be 175.
For the molecule `C[C@]12CC[C@H](O)C[C@@H]1[C@@H](O)C[C@@H]1[C@@H]2CC[C@@]2(C)[C@H]1CC[C@@H]2[C@@](C)(O)CCc1ccccc1` [Oxy52, (3S,5S,6S,8R,9S,10R,13S,14S,17S)-17-((S)-2-hydroxy-4-phenylbutan-2-yl)-10,13-dimethylhexadecahydro-1H-cyclopenta[a]phenanthrene-3,6-diol], the Osteoinductive property entry in the assay with marrow stromal cells is “osteoinductive”. Also, in assay [1] (setting [3]), the fold induction at 1.25 µM stood at 5 and the fold induction at 2.5 µM amounted to 22.
For the molecule `C[C@]12CC[C@H]3[C@@H](CC=C4C[C@@H](O)CC[C@@]43C)[C@@H]1CC[C@@H]2[C@@](C)(O)CCc1ccccc1F` [Oxy39, (3S,8S,9S,10R,13S,14S,17S)-17-((S)-4-(2-Fluorophenyl)-2-hydroxybutan-2-yl)-10,13-dimethyl-2,3,4,7,8,9,10,11,12,13,14,15,16,17-tetradecahydro-1H-cyclopenta[a]phen-anthren-3-ol], the Osteoinductive property result with marrow stromal cells was “osteoinductive”. Besides, in assay [1] (setting [2]), the fold induction at 2.5 µM was 52 and the fold induction at 5 µM came out at 148.
On to `C[C@]12CC[C@H](O)C[C@@H]1[C@@H](O)C[C@@H]1[C@@H]2CC[C@@]2(C)[C@H]1CC[C@@H]2[C@@](C)(O)CC#Cc1cccs1` [Oxy51, (3S,5S,6S,8R,9S,10R,13S,14S,17S)-17-((S)-2-hydroxy-5-(thiophen-2-yl)pent-4-yn-2-yl)-10,13-dimethylhexadecahydro-1H-cyclopenta[a]phenanthrene-3,6-diol], for which, in the assay on marrow stromal cells, the Osteoinductive property result was “osteoinductive”. The “Alkaline phosphatase activity versus control vehicle (significance)” value in assay [1] is on record as “not significant”. Moreover, in assay [1] (setting [3]), the fold induction at 1.25 µM is 3 and the fold induction at 2.5 µM was found to be 20.
For the molecule `C[C@]12CCC3C(CC=C4C[C@@H](O)CC[C@@]43C)C1CCC2[C@@](C)(O)CCCc1ccccc1` (stereo partly shown) [Oxy22], in the assay on marrow stromal cells, the Osteoinductive property entry is “osteoinductive”. In addition, in assay [1] (setting [2]), the fold induction at 2.5 µM was 4 and the fold induction at 5 µM was 9.
On to `C[C@]12CC[C@H]3[C@@H](CC=C4C[C@@H](O)CC[C@@]43C)[C@@H]1CC[C@@H]2[C@@](C)(O)CCCc1cccs1` [Oxy42, (3S,8S,9S,10R,13S,14S,17S)-17-((S)-2-Hydroxy-5-(thiophen-2-yl)pentan-2-yl)-10,13-dimethyl-2,3,4,7,8,9,10,11,12,13,14,15,16,17-tetradecahydro-1H-cyclopenta[a]phen-anthren-3-ol], for which the Osteoinductive property result in the assay on marrow stromal cells is on record as “osteoinductive”. Further, in assay [1] (setting [2]), the fold induction at 2.5 µM was 166 and the fold induction at 5 µM is 290.
The matching figures for `C[C@]12CC[C@H]3[C@@H](CC=C4C[C@@H](O)CC[C@@]43C)[C@@H]1CC[C@@H]2[C@@](C)(O)CC#Cc1cccs1` [Oxy26, (3S,8S,9S,10R,13S,14S,17S)-17-((S)-2-Hydroxy-5-(thiophen-2-yl)pent-4-yn-2-yl)-10,13-dimethyl-2,3,4,7,8,9,10,11,12,13,14,15,16,17-tetradecahydro-1H-cyclopenta-[a]phenanthren-3-ol]: “osteoinductive”, 27 and 76.
